In US12612407B2, “Imidazo[2,1-f][1,2,4]triazin-4-amine derivatives as TLR7 agonist” (BEIGENE, LTD., priority 2020, dated 2026):

Molecular target: T1, human TLR7 (Homo sapiens, UniProt Q9NYK1)
T1 construct: host or cells: HEK293 (HEK-Blue hTLR7)
T1 sequence (Q9NYK1 27-1049): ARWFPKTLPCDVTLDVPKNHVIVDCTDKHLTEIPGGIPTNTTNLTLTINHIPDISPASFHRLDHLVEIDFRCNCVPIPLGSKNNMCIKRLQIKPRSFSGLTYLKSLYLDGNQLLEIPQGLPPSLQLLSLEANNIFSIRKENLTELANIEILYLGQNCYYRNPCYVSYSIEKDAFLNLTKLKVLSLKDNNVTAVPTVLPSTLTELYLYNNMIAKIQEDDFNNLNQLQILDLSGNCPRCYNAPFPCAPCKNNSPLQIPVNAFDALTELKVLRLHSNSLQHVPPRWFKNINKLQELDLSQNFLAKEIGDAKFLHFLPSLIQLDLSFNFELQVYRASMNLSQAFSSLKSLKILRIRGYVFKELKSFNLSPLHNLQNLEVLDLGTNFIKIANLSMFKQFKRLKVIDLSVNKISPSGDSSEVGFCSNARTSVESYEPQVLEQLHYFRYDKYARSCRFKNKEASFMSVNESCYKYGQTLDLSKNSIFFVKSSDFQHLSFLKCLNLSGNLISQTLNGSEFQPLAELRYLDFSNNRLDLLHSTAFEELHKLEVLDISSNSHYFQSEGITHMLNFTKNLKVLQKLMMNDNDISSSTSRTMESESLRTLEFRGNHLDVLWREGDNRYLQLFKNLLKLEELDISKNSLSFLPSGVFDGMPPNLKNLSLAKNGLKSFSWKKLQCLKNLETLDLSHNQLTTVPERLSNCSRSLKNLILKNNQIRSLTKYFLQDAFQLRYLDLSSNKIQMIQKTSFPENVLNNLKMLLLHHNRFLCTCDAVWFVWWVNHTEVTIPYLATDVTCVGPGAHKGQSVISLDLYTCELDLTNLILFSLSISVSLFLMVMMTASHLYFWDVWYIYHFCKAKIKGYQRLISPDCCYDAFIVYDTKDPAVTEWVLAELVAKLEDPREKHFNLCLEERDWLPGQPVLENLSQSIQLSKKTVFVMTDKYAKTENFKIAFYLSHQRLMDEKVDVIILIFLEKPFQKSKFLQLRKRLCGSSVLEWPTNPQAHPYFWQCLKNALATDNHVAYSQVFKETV
Assay: HEK293-Blue hTLR7 Reporter Assay (QUANTI-BLUE, SEAP readout)
Format: cell-based
Conditions: HEK-Blue-hTLR7 cells, 24 hrs treatment, Table 1, B1-B232
Method: HEK293-Blue hTLR7 Reporter Assay: HEK-Blue-hTLR7 cell line (Invivogen, Cat. No. hkb-htlr7) was designed so that the expression of the secreted embryonic alkaline phosphatase (SEAP) was induced by activating NF-κ and AP-1 via stimulating human TLR7 with TLR7 agonists. HEK-Blue-hTLR7 cells were seeded at a density of 4×10^4 cells/well in a volume of 180 μL in a 96-well plate in DMEM (Cat. No. 11965-092) supplemented with 10% (v/v) heat-inactivated fetal bovine serum (FBS) (Gibco, 10099-1441), 100 U/ml penicillin and 100 μg/ml streptomycin (Gibco, 15140122) containing 50 U/mL penicillin, […] and 10% (v/v) heat-inactivated fetal bovine serum. The cells were settled for 5 hrs, then treated with increasing amounts of tested compounds at 37° C. for 24 hrs. Then 20 μL of the supernatant from each well was incubated with 180 μL Quanti-blue substrate solution at 37° C. for 10-30 mins before the activity of the SEAP was determined at 620-655 nm using a spectrophotometer. The EC50 value for each compound was calculated with GraphPad Prism software using the sigmoidal dose-response function.

**Q.** `Cc1cc(Cc2cnc3c(N)nc(OCCC(C)C)nn23)cnc1N1CCNCC1` [Compound B22, 2-(isopentyloxy)-7-((5-methyl-6-(piperazin-1-yl)pyridin-3-yl)methyl)imidazo[2,1-f][1,2,4]triazin-4-amine] was tested. Which EC50 did it give?
**A.** Its EC50 is 496 nM.

**Q.** With `CCCCOc1nc(N)c2ncc(Cc3ccc(C4CCNCC4)cc3)n2n1` [Compound B3, 2-butoxy-7-(4-(piperidin-4-yl)benzyl)imidazo[2,1-f][1,2,4]triazin-4-amine] as the molecule, how does the EC50 read?
**A.** Its EC50 is 327 nM.

**Q.** Which EC50 does the source give for `CCCC(CCC)Oc1nc(N)c2ncc(Cc3cnc(N4CCNCC4)c(C)c3)n2n1` [Compound B143, 2-(heptan-4-yloxy)-7-((5-methyl-6-(piperazin-1-yl)pyridin-3-yl)methyl)imidazo[2,1-f][1,2,4]triazin-4-amine] here?
**A.** The EC50 was 7.8 nM.

**Q.** How did the EC50 turn out when `CCC(CC)Nc1nc(N)c2ncc(Cc3cnc(N4CCC(CN(C)C)CC4)c(C)c3)n2n1` [Compound B208, 7-((6-(4-((dimethylamino)methyl)piperidin-1-yl)-5-methylpyridin-3-yl)methyl)-N2-(pentan-3-yl)imidazo[2,1-f][1,2,4]triazine-2,4-diamine] was run?
**A.** The EC50 was 7.4 nM.

**Q.** Which EC50 does the source give for `Cc1cc(Cc2cnc3c(N)nc(OC4CCCC4)nn23)cnc1N1CCNCC1` [Compound B172, 2-(cyclopentyloxy)-7-((5-methyl-6-(piperazin-1-yl)pyridin-3-yl)methyl)imidazo[2,1-f][1,2,4]triazin-4-amine] here?
**A.** Its EC50 is 260 nM.

**Q.** Which EC50 does the source give for `CCCCOc1nc(N)c2ncc(Cc3cnc(N4CCNCC4)c(CC)c3)n2n1` [Compound B183, 2-butoxy-7-((5-ethyl-6-(piperazin-1-yl)pyridin-3-yl)methyl)imidazo[2,1-f][1,2,4]triazin-4-amine] here?
**A.** Its EC50 is 93 nM.

**Q.** `CCCC(CCC)Oc1nc(N)c2ncc(Cc3cnc(N4CCC(CN(C)C)CC4)c(C)c3)n2n1` [Compound B198, 7-((6-(4-((dimethylamino)methyl)piperidin-1-yl)-5-methylpyridin-3-yl)methyl)-2-(heptan-4-yloxy)imidazo[2,1-f][1,2,4]triazin-4-amine] was tested. Which EC50 did it give?
**A.** Its EC50 is 4.1 nM.

**Q.** `CCCC(C)Nc1nc(N)c2ncc(Cc3cnc(N4CCN(C(=O)CN(C)C)CC4)c(C)c3)n2n1` (centres unmarked) [Compound B151, 1-(4-(5-((4-amino-2-(pentan-2-ylamino)imidazo[2,1-f][1,2,4]triazin-7-yl)methyl)-3-methylpyridin-2-yl)piperazin-1-yl)-2-(dimethylamino)ethan-1-one] was tested. Which EC50 did it give?
**A.** The EC50 was 3 nM.

**Q.** With `CCCCOc1nc(N)c2ncc(Cc3cnc(N4CCN(C(=O)CN(C)C(C)=O)CC4)c(C)c3)n2n1` [Compound B58, N-(2-(4-(5-((4-amino-2-butoxyimidazo[2,1-f][1,2,4]triazin-7-yl)methyl)-3-methylpyridin-2-yl)piperazin-1-yl)-2-oxoethyl)-N-methylacetamide] as the molecule, how does the EC50 read?
**A.** Its EC50 is 3250 nM.

**Q.** For `COCC(C)Oc1nc(N)c2ncc(Cc3cnc(N4CCNCC4)c(C)c3)n2n1` (centres unmarked) [Compound B174, 2-((1-methoxypropan-2-yl)oxy)-7-((5-methyl-6-(piperazin-1-yl)pyridin-3-yl)methyl)imidazo[2,1-f][1,2,4]triazin-4-amine], which EC50 is on record?
**A.** Its EC50 is 48 nM.

**Q.** Which EC50 does the source give for `CCCCOc1nc(N)c2ncc(Cc3cnc(N4CCN(C(=O)[C@@H](N)CC(C)C)CC4)c(C)c3)n2n1` [Compound B69, (S)-2-amino-1-(4-(5-((4-amino-2-butoxyimidazo[2,1-f][1,2,4]triazin-7-yl)methyl)-3-methylpyridin-2-yl)piperazin-1-yl)-4-methylpentan-1-one] here?
**A.** The EC50 was 313 nM.

**Q.** For `CCC[C@@H](C)Oc1nc(N)c2ncc(Cc3cnc(N4CCC(N(C)C)CC4)c(C)c3)n2n1` [Compound B127, (R)-7-((6-(4-(dimethylamino)piperidin-1-yl)-5-methylpyridin-3-yl)methyl)-2-(pentan-2-yloxy)imidazo[2,1-f][1,2,4]triazin-4-amine], which EC50 is on record?
**A.** The EC50 was 56 nM.

**Q.** With `CCCC(C)Oc1nc(N)c2ncc(Cc3cnc(N4CCN(C(=O)CNC)CC4)c(C)c3)n2n1` (centres unmarked) [Compound B111, 1-(4-(5-((4-amino-2-(pentan-2-yloxy)imidazo[2,1-f][1,2,4]triazin-7-yl)methyl)-3-methylpyridin-2-yl)piperazin-1-yl)-2-(methylamino)ethan-1-one] as the molecule, how does the EC50 read?
**A.** The EC50 was 9.8 nM.

**Q.** `CCCCOc1nc(N)c2ncc(Cc3ccc(N4CCNCC4)c(CC)c3)n2n1` [Compound B92, 2-butoxy-7-(3-ethyl-4-(piperazin-1-yl)benzyl)imidazo[2,1-f][1,2,4]triazin-4-amine] was tested. Which EC50 did it give?
**A.** The EC50 was 464 nM.

**Q.** With `CCC[C@H](C)Oc1nc(N)c2ncc(Cc3cnc(N4CCN(C(=O)CNCC(C)C)CC4)c(C)c3)n2n1` [Compound B212, (S)-1-(4-(5-((4-amino-2-(pentan-2-yloxy)imidazo[2,1-f][1,2,4]triazin-7-yl)methyl)-3-methylpyridin-2-yl)piperazin-1-yl)-2-(isobutylamino)ethan-1-one] as the molecule, how does the EC50 read?
**A.** Its EC50 is 6.2 nM.

**Q.** How did the EC50 turn out when `CCCCOc1nc(N)c2ncc(Cc3cnc(N4CCC(CN5CCOCC5)CC4)c(C)c3)n2n1` [Compound B109, 2-butoxy-7-((5-methyl-6-(4-(morpholinomethyl)piperidin-1-yl)pyridin-3-yl)methyl)imidazo[2,1-f][1,2,4]triazin-4-amine] was run?
**A.** Its EC50 is 161 nM.

**Q.** For `Cc1cc(Cc2cnc3c(N)nc(OCC4CCOC4)nn23)cnc1N1CCNCC1` (centres unmarked) [Compound B193, 7-((5-methyl-6-(piperazin-1-yl)pyridin-3-yl)methyl)-2-((tetrahydrofuran-3-yl)methoxy)imidazo[2,1-f][1,2,4]triazin-4-amine], which EC50 is on record?
**A.** The EC50 was 902 nM.

**Q.** How did the EC50 turn out when `Cc1cc(Cc2cnc3c(N)nc(OCCn4ccnc4)nn23)cnc1N1CCNCC1` [Compound B42, 2-(2-(1H-imidazol-1-yl)ethoxy)-7-((5-methyl-6-(piperazin-1-yl)pyridin-3-yl)methyl)imidazo[2,1-f][1,2,4]triazin-4-amine] was run?
**A.** The EC50 was greater than 10000 nM.

**Q.** Which EC50 does the source give for `CCCC(Oc1nc(N)c2ncc(Cc3cnc(N4CCNCC4)c(C)c3)n2n1)C1CC1` (centres unmarked) [Compound B202, 2-(1-cyclopropylbutoxy)-7-((5-methyl-6-(piperazin-1-yl)pyridin-3-yl)methyl)imidazo[2,1-f][1,2,4]triazin-4-amine] here?
**A.** Its EC50 is 15 nM.

**Q.** How did the EC50 turn out when `CCCCOc1nc(N)c2ncc(Cc3cnc(N4CCC5(CCNC5)CC4)c(C)c3)n2n1` [Compound B82, 2-butoxy-7-((5-methyl-6-(2,8-diazaspiro[4.5]decan-8-yl)pyridin-3-yl)methyl)imidazo[2,1-f][1,2,4]triazin-4-amine] was run?
**A.** The EC50 was 431 nM.

**Q.** Which EC50 does the source give for `CCCCOc1nc(N)c2ncc(Cc3ccc(C4CCNCC4)nc3C)n2n1` [Compound B54, 2-butoxy-7-((2-methyl-6-(piperidin-4-yl)pyridin-3-yl)methyl)imidazo[2,1-f][1,2,4]triazin-4-amine] here?
**A.** Its EC50 is 158 nM.

**Q.** Which EC50 does the source give for `CCCCOc1nc(N)c2ncc(Cc3ccc(N4CCNCC4)c(OC)c3)n2n1` [Compound B45, 2-butoxy-7-(3-methoxy-4-(piperazin-1-yl)benzyl)imidazo[2,1-f][1,2,4]triazin-4-amine] here?
**A.** The EC50 was 418 nM.

**Q.** `CCCCOc1nc(N)c2ncc(Cc3ccc(C4CCNCC4)c(C)c3)n2n1` [Compound B64, 2-butoxy-7-(3-methyl-4-(piperidin-4-yl)benzyl)imidazo[2,1-f][1,2,4]triazin-4-amine] was tested. Which EC50 did it give?
**A.** The EC50 was 448 nM.

**Q.** Which EC50 does the source give for `CC[C@@H](CCO)Oc1nc(N)c2ncc(Cc3cnc(N4CCNCC4)c(C)c3)n2n1` [Compound B216, (S)-3-((4-amino-7-((5-methyl-6-(piperazin-1-yl)pyridin-3-yl)methyl)imidazo[2,1-f][1,2,4]triazin-2-yl)oxy)pentan-1-ol] here?
**A.** Its EC50 is 1080 nM.

**Q.** How did the EC50 turn out when `CCCCOc1nc(N)c2ncc(Cc3cnc(N4CCC(N(C)C)CC4)c(C)c3)n2n1` [Compound B78, 2-butoxy-7-((6-(4-(dimethylamino)piperidin-1-yl)-5-methylpyridin-3-yl)methyl)imidazo[2,1-f][1,2,4]triazin-4-amine] was run?
**A.** The EC50 was 47 nM.

**Q.** How did the EC50 turn out when `CCCCCCCCOc1nc(N)c2ncc(Cc3cnc(N4CCNCC4)c(C)c3)n2n1` [Compound B43, 7-((5-methyl-6-(piperazin-1-yl)pyridin-3-yl)methyl)-2-(octyloxy)imidazo[2,1-f][1,2,4]triazin-4-amine] was run?
**A.** Its EC50 is greater than 10000 nM.
